These results are taken from publication PMC9694197, “Undescribed Metabolites from an Actinobacteria Acrocarpospora punica and Their Anti-Inflammatory Activity” (Molecules, 2022).

Molecules are shown by their SMILES. Entries after “also recorded” stand apart in the source; their conditions may differ. Where two headings read alike, the source gives them in different places.

Common to all, as to assay type: cell-based, mouse
One data set concerns RAW 264.7 cells. Briefly: Cell viability, MTT assay. Conditions: RAW 264.7, MTT assay, with 1 μg/mL LPS, 20 h; mean ± S.E.M. How it is done: (§1) The six isolates, in sufficient amounts, were evaluated by examining their inhibitory effects on LPS-induced inducible nitric oxide synthase (iNOS)-dependent NO production in the murine macrophage cell line RAW 264.7 (Table 5). […] (e) Compounds 3 and 6 belong to liner azaphilone skeleton and naphthenic derivatives, respectively; compound 3 has better anti-inflammatory activity than 6. […] (g) The cytotoxic effects were measured using an MTT assay.
(§2) Mouse macrophage cell line (RAW 264.7) was obtained from the Bioresource Collection and Research Center (BCRC 60001) and cultured at 37 °C in Dulbecco’s Modified Eagle’s Medium (DMEM) supplemented with 10% fetal bovine serum (Gibco), 4.5 g/L glucose, 4 mM glutamine, penicillin (100 units/mL), and streptomycin (100 μg/mL) in a humidified atmosphere in a 5% CO2 incubator. The cells were treated with 10, 25, 50 μM natural products in the presence of 1 μg/mL LPS (lipopolysaccharide, Sigma-Aldrich) for 20 h. The concentration of NO in culture supernatants was determined as nitrite, a major stable product of NO, by a Griess reagent assay, and the cell viabilities were determined using the MTT assay as described previously.
A general note: Tetrazolium assays rely on reduction of a dye to a coloured formazan, in cell work by metabolically active cells.

A short description of data set [1]: Cell viability, MTT assay. Conditions: mouse, RAW 264.7 macrophage cells; RAW 264.7, MTT assay. How it is done: as §1, §2
The test system of data set [2] is iNOS gene (mRNA expression). Nature of the data set: RT-PCR of iNOS mRNA expression after LPS treatment. How it is done:
as §1
The ImProm-II Reverse Transcription System (Promega) was used to take 1 μg of the extracted total RNA, to which was added 1 μL of Oligo(dT)15 Primer, and other supplements with DEPS water. At this time, the total volume was 5 μL. The reaction was immediately placed on ice for at least 5 min, and then 5 × buffer 4 μL, MgCl2 (25 mM) 1.2 μL, dNTP Mix (10 mM) 1 μL, RNasin Ribonuclease Inhibitor 0.5 μL, ImProm-II reverse transcriptase 1 μL and DEPC H2O 6.8 μL was added; the cDNA product was obtained after the reactions of 25 °C, 5 min; 42 °C, 1 h; and 70 °C, 15 min. At the same time, a negative control group was made without reverse transcriptase to confirm whether there was DNA contamination. The obtained cDNA product was then amplified by a PCR reaction to amplify the predicted fragment.
Using the ABI PRISM 7700 Sequence Detection System, the cDNA product was assayed for iNOS, TNF-α, IL-6 and β-actin (internal standard) in a total reaction volume of 20 μL, including 2 × IQ2 SYBR Green Fast qPCR Master Mix (2X) 10 μL, 10 μM of 5′ and 3′ primers 1 μL each. The cDNA template 1 μL reaction conditions were 95 °C, 2 min, 1 cycle; 95 °C, 5 s; and 60 °C, 30 s, 40 cycles. The primers of the PCR reaction were: sense strand iNOS, 5′-GGAGTGACGGCAAACATGACT-3′; anti-sense strand iNOS, 5′-TCGATGCACAACTGGGTGAAC-3′; sense strand IL-6, 5′-CAGAGTCCTTCAGAGAGATACAG-3′; anti-sense strand IL-6, 5′-GATGAATTGGATGGTCTTGGTCC-3′; sense strand TNF-α, 5′-CAGACCCTCACACTCAGATC-3′; anti-sense strand TNF-α, 5′-CTTTGAGATCCATGCCGTTG-3′; sense strand β-actin, 5′-GGCTGTATTCCCCTCCATCG-3′; and anti-sense strand β-actin, 5′-CCAGTTGGTAACAATGCCATGT-3′.

In data set [3] the test system is LPS-induced NO production in RAW 264.7 murine macrophages. Briefly: LPS-induced iNOS-dependent NO production (nitrite, Griess reagent assay). Conditions: for NO inhibitory activity compared to quercetin: ratio to the positive control quercetin, RAW 264.7, LPS; for IC50: read-out: IC50, NO generation; for NO inhibitory activity (in words): RAW 264.7, LPS-stimulated. How it is done:
as §1, §2
For orientation: Nitrite, measured by Griess reagent, commonly stands in for NO production.

Where [4] appears, read: RAW 264.7 murine macrophages, 1 μg/mL LPS, 20 h, mean ± S.E.M. of three independent experiments.
The mark [5] stands for this setting: Mus musculus, RAW264.7, 20 h, RAW 264.7 murine macrophages, 1 μg/mL LPS, 20 h, mean ± S.E.M. of three independent experiments.

As for `CC=CC1=CC2=CC3=C(C(=O)CCCCC)C(=O)OC3(C)C(=O)C2=CN1CC` (centres unmarked) [Acrocarpunicain A (1), acrocarpunicain A], in the data set with RAW 264.7 cells, the “Cell Viability (% Control)” value is 100 ± 15.5 % Control. Besides, the viability (as a rule, a read-out of living cells in per cent, often relative to untreated cells) at 20 h in data set [1] is more than 90%. The “Effect on LPS-increased iNOS mRNA expression” value in data set [2] is “inhibited this increase in a concentration-dependent manner; also recorded: significantly inhibited”. The “NO inhibitory activity compared to quercetin” value in data set [3] is given as “about 4 fold”.
In the case of `CC=CC1=CC2=CC3=C(C(=O)CCCCCCC)C(=O)OC3(C)C(=O)C2=CN1CC` (centres unmarked) [Acrocarpunicain B (2), acrocarpunicain B], in the data set on RAW 264.7 cells, the “Cell Viability (% Control)” value is 95.5 ± 4.2 % Control. The viability at 20 h in data set [1] was more than 90%. Also, the “Effect on LPS-increased iNOS mRNA expression” value in data set [2] is listed as “inhibited this increase in a concentration-dependent manner; also recorded: significantly inhibited”. For the same molecule, the IC50 in data set [3] (RAW 264.7 murine macrophages, 1 μg/mL LPS, 20 h, mean ± S.E.M. of three independent experiments, listed as 2) is not above 27.2 µM; in data set [3] (setting [4]), 10.1 ± 0.47 µM. Moreover, the “NO inhibitory activity compared to quercetin” value in data set [3] was approximately 3 fold.
Take `C/C=C/c1cc2cc3c(c(=O)c-2co1)C(=O)OC3C` (centres unmarked) [Acrocarpunicain C (3), (E)-1-methyl-7-(prop-1-en-1-yl)-3H-furo [3,4-g]isochromene-3,4(1H)-dione]: the “Cell Viability (% Control)” value in the data set on RAW 264.7 cells was found to be 92.7 ± 4.1 % Control. The same molecule gave a viability at 20 h in data set [1] of more than 90%. Moreover, the “Effect on LPS-increased iNOS mRNA expression” value in data set [2] was “inhibited this increase in a concentration-dependent manner; also recorded: significantly inhibited”. For the same molecule, the IC50 was not above 27.2 µM in data set [3] (RAW 264.7 murine macrophages, 1 μg/mL LPS, 20 h, mean ± S.E.M. of three independent experiments, listed as 3) and 5.15 ± 0.18 µM in data set [3] (setting [4]). Further, the “NO inhibitory activity compared to quercetin” value in data set [3] is given as approximately 7 fold.
Turning to `CC=CC1=C(C)C(=O)C2(C)OC(=O)C(C(=O)CCCCC)C2C1` (centres unmarked) [Acrocarpunicain D (4), acrocarpunicain D], in the data set with RAW 264.7 cells, the “Cell Viability (% Control)” value stood at 62.2 ± 3.2 % Control. The IC50 in data set [3] (setting [5]) turned out to be 41.7 ± 3.02 µM. The “NO inhibitory activity (in words)” value in data set [3] is reported as “weak NO inhibitory activity”.
As for `CCC(CCC(C)C1CCC2C3CC=C4CC(OC(=O)C=Cc5cc(O)c(OC)c(O)c5)CCC4(C)C3CCC12C)C(C)C` (stereo not drawn) [Acrocarpunicain E (5), β-sitosteryl trans-3-hydroxyisoferulate], in data set [3] (Mus musculus, RAW264.7, 20 h), the IC50 turned out to be 67.4 ± 4.09 µM. Also, the “NO inhibitory activity (in words)” value in data set [3] was “no NO inhibitory activity”.
`COc1cc2ccc3c(c2cc1C(C)C)CCCC3(C)C` [Acrocarpunicain F (6), 6-isopropyl-7-methoxy-1,1-dimethyl-1,2,3,4-tetrahydrophenanthrene]: the “Cell Viability (% Control)” value in the data set on RAW 264.7 cells worked out at 91.3 ± 7.1 % Control. In data set [1], the viability at 20 h is more than 90%. In addition, the “Effect on LPS-increased iNOS mRNA expression” value in data set [2] is “inhibited this increase in a concentration-dependent manner; also recorded: significantly inhibited”. The results for the IC50 in data set [3] (setting [5]) and in data set [3] (setting [4]) were not above 27.2 µM and 27.2 ± 1.87 µM, respectively. In addition, in data set [3], the “NO inhibitory activity compared to quercetin” value is given as approximately 1.2 fold.
For `O=c1c(O)c(-c2ccc(O)c(O)c2)oc2cc(O)cc(O)c12` [Quercetin, reference compound], the “Cell Viability (% Control)” value in the data set with RAW 264.7 cells was determined as 95.9 ± 1.3 % Control. Besides, the IC50 in data set [3] (setting [5]) is 36 ± 2.34 µM.
